Experimental data published in patent US9066948B2, “Oxadiazolo[3,2-a]pyrimidines and thiadiazolo[3,2-a]pyrimidines” (THE UNITED STATES OF AMERICA AS REPRESENTED BY THE …, priority 2010, dated 2015).
Values joined by “and” are separate entries in the source; they are usually repeats but may differ in a detail not shown here. Identical values can stand only once. Like-named read-outs stand apart in the source and are kept apart here.

Legend:
platelets = test: Platelet aggregation assay: ADP-induced, platelet-rich plasma; format: cell-based, human; conditions: for IC50: Homo sapiens, Platelet, n=4
Procedure: […] After 30 seconds in the aggregometer (Kowa AF-10E; Tokyo, Japan) at 37° C. with stirring, ADP (5-20 μM) is added to induce aggregation and the light transmittance is measured for 8 minutes. The initial slopes of aggregation in the presence of different concentrations of the Compound being tested are used to generate an IC50.

purified αIIbβ3 = target: T1, purified αIIbβ3 (Homo sapiens, UniProt P05106+P08514); test: Extension of purified αIIbβ3 in nanodiscs by negative staining electron microscopy; conditions: concentrations up to 10 μM
T1 construct: αIIbβ3 is purified from outdated single donor platelet concentrates obtained from the New York Blood Center; tissue New York Blood Center; host or cells: outdated single donor platelet concentrates
Procedure: In brief, the His-tagged membrane scaffold protein is prepared as a recombinant protein in E. coli and purified by Nickel affinity chromatography and anion exchange chromatography. Final assembly consists of solubilizing an equimolar mixture of 1,2-dimyristoyl-sn-glycero-3-phosphocholine and 1,2-dimyristoyl-sn-glycero-3-phospho-(1′-rac-glycerol) in octylglucoside and cholate and then adding the purified αIIbβ3. The detergents are removed with macroporous polymeric beads (Bio-Bead SM-2) and then the αIIbβ3 nanodiscs are separated from the empty nanodiscs by gel filtration.
αIIbβ3 nanodiscs are treated with eptifibatide, tirofiban, 2-ethyl-7-(piperazin-1-yl)-5H-[1,3,4]thiadiazolo-[3,2-a]pyrimidin-5-one of U.S. Ser. No. 12/514,286, or the compound of Example 27 of the current invention for 1 hour at room temperature at concentrations up to 100 μM for 2-ethyl-7-(piperazin-1-yl)-5H-[1,3,4]thiadiazolo-[3,2-a]pyrimidin-5-one (a compound claimed in U.S. Ser. No. 12/514,286) and at concentrations up to 10 μM for 2-amino-N-(3-(5-oxo-7-(piperazin-1-yl)-5H-[1,3,4]thiadiazolo[3,2-a]pyrimidin-2-yl)phenyl)acetamide of Example 27. Samples are loaded onto carbon-coated copper grids that are glow-discharged by a carbon coating unit (Edwards; Crowley, UK), and then stained with 2% uranyl acetate, followed by drying. Imaging of αIIbβ3 nanodiscs is performed using a JOEL JEM 100CX transmission electron microscope (Jeol Ltd; Tokyo, Japan) at 80 kV and magnifications of 33,000× and 50,000×. Individual nanodiscs containing αIIbβ3 are manually selected for analysis using Image J (NIH, Bethesda, Md.). The distance from the bottom of the nanodisc to the height of the αIIbβ3 complex (nanodisc-integrin length; NIL) is measured as an indicator of integrin extension. The frequency distribution of NIL values is then analyzed for untreated αIIbβ3 nanodiscs and αIIbβ3 nanodiscs in the presence of different compounds.

αIIbβ3 = target: T2, αIIbβ3 (Homo sapiens, UniProt P05106+P08514); test: Induction of ligand-induced binding site (LIBS) epitopes, flow cytometry of washed platelets; format: cell-based; conditions: eptifibatide 10 μM = 100%, Example 27 at 100 μM
T2 construct: Washed platelets are prepared in HBMT containing 2 mM CaCl2/1 mM MgCl2; endogenous in cells; host or cells: washed platelets
Procedure: Washed platelets are prepared in HBMT containing 2 mM CaCl2/1 mM MgCl2. […] Fluorescently labeled monoclonal antibodies (PMI-1, LIBS-1, AP5, or 10E5; Alexa-488 conjugated; Invitrogen) are then added (20 μL, final concentration: 5 μg/mL) and incubated for 30 minutes at 22° C. in the dark, after which samples are diluted 1:10 in HBMT with CaCl2/MgCl2 for analysis by flow cytometry (FACSCalibur; Becton Dickinson, Franklin Lakes, N.J.). Antibody binding is reported as the geometric mean fluorescence intensity; nonspecific binding is determined by adding a 50-fold excess of unlabeled antibody before adding the labeled antibody. The net normalized fluorescence intensity in the presence of eptifibatide (10 μM, 30 min incubation at 22° C.) is assigned the value of 100%

rat platelets = test: ADP-induced platelet aggregation, rat PRP (Example 45); format: cell-based; conditions: 1 μM
Procedure: Blood may be drawn via cardiac puncture from anesthetized Sprague Dawley rats (Taconic, Hudson, N.Y.), WT C57B1/6 mice (Jackson Laboratories, Bar Harbor, Me.), and mice expressing hαIIb/mβ3 and diluted 1:1 with a mixture of 4 parts 0.165 […], pH 7.4 containing 2 mM CaCl2 and 1 mM MgCl2. Blood from consenting human volunteers is obtained from a peripheral vein using a 19 gauge needle and anticoagulated with 1:10 vol 3.8% sodium citrate. Platelet-rich plasma (PRP) may be isolated by centrifugation at 22° C. at 350 g for 10 minutes (rats); 250 g for 2.5 minutes (mice); or 650 g for 4 minutes (human). Mouse PRP samples may be adjusted to 400,000 platelets/μl with the buffer used for dilution and human PRP may be adjusted to 300,000 platelets/μl with platelet-poor plasma. […] Platelet aggregation may be induced by adding to PRP adenosine diphosphate (ADP) at 30 μM (rats and WT mice), 20 or 30 μM (hαIIb/mβ3 mice), or 5 μM (humans), and light transmission may be measured over time in an aggregometer (Kowa AG-10E, Tokyo, Japan) with stirring. Percent inhibition may be calculated by comparing the initial slope of untreated samples to the samples treated with the Compounds of the Invention.

T2 sequence (P08514 32-887 limits assumed): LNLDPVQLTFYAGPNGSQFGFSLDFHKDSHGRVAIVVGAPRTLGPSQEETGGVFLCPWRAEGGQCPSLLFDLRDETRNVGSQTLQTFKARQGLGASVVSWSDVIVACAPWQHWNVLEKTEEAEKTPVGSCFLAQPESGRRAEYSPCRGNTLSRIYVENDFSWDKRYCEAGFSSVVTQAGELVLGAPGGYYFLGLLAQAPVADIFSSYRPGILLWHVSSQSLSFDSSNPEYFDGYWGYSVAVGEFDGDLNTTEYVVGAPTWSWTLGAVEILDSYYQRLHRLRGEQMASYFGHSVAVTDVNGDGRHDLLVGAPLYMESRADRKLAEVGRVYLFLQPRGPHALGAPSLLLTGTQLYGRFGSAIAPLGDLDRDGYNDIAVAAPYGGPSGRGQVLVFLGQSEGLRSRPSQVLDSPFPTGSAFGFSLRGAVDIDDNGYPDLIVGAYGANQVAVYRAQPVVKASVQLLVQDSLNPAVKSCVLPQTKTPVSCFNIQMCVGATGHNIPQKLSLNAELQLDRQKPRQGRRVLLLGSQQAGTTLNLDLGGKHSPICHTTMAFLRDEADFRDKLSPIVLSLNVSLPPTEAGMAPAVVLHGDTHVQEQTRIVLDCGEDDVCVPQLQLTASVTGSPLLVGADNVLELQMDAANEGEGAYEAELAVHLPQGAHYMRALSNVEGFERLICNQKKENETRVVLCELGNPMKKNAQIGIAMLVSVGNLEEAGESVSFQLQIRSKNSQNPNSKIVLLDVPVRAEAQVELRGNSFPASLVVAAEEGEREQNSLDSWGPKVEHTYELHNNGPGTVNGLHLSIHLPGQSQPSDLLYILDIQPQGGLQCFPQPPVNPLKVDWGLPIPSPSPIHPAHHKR
T2 sequence (P08514 891-1039 partner limits assumed): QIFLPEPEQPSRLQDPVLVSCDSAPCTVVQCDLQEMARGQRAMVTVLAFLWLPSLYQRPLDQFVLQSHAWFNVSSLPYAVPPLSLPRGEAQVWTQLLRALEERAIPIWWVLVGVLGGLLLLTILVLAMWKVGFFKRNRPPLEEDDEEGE
T2 sequence (P05106 27-788): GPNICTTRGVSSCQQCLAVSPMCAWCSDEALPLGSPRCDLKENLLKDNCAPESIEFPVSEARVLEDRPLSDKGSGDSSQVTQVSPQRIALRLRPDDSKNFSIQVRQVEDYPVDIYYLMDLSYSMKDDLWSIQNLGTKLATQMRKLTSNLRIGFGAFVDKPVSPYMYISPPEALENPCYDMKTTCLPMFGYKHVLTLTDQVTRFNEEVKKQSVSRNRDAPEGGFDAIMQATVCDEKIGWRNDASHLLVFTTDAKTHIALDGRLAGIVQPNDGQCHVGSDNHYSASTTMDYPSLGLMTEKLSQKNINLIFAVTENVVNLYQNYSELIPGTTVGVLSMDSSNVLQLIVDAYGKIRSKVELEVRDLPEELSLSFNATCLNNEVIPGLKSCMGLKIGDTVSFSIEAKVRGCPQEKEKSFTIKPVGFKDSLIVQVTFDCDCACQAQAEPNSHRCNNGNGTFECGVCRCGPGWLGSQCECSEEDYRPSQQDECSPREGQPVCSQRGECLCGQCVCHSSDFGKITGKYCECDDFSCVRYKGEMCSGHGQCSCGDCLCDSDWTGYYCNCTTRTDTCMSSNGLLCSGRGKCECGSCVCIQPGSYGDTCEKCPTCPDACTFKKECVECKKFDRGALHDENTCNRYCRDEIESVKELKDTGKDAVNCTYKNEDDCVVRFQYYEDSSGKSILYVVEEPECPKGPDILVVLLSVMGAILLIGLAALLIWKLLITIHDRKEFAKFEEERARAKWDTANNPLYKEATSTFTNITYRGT
T1 sequence (P08514 32-887 limits assumed): as the sequence (P08514 32-887 limits assumed) above
T1 sequence (P08514 891-1039 partner limits assumed): as the sequence (P08514 891-1039 partner limits assumed) above
T1 sequence (P05106 27-788): as the sequence (P05106 27-788) above

NCC(=O)Nc1cccc(-c2nn3c(=O)cc(N4CCNCC4)nc3s2)c1 [Example 27, 2-amino-N-(3-(5-oxo-7-(piperazin-1-yl)-5H-[1,3,4]thiadiazolo[3,2-a]pyrimidin-2-yl)phenyl)acetamide]
potency in inhibiting platelet aggregation relative to 2-ethyl-7-(piperazin-1-yl)-5H-[1,3,4]thiadiazolo-[3,2-a]pyrimidin-5-one (platelets): more than one hundred-fold more potent | IC50 (platelets; PPACK instead of citrate, read-out: IC50, ADP-induced platelet aggregation with PPACK as anticoagulant): 220 nM | IC50 (platelets; citrate anticoagulant, read-out: IC50, ADP-induced platelet aggregation of citrated PRP): 90 ± 20 nM | IC50 with PPACK relative to citrate (platelets; PPACK vs citrate): ~3 fold | shift of nanodisc-integrin length (NIL) values / receptor extension (purified αIIbβ3): do not induce receptor extension | AP5 binding, % of the amount in the presence of eptifibatide (αIIbβ3): 18±5% and 18% | LIBS1 binding after 30 min, % of the amount in the presence of eptifibatide (αIIbβ3): 21±3% | PMI-1 binding, % of the amount bound by platelets treated with eptifibatide (αIIbβ3): 82±13% | inhibition of rat platelet aggregation induced by ADP (rat platelets): does not inhibit either mouse or rat platelet aggregation
